Measurements published in PubChem BioAssay AID179 (DTP/NCI, 2004).
Activity calls are given as the source filed them.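 The calls were made as follows: active = compounds giving half or more protection of infected cells from virus-caused growth loss, again on retest; inactive = the rest.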

Tested on: CEM cells HIV-1 protection, formazan growth assay
Test: NCI AIDS Antiviral Assay
Settings: for IC50: measured here: growth of uninfected CEM cells
How it was run: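 Screen of anti-HIV-1 activity in human CEM cells using a formazan-based growth measurement at five drug concentrations. Hits with 50% or greater protection were repeated, and confirmation required reproducible complete protection.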

Structure (SMILES)	EC50 [µM]	IC50 [µM]	outcome
CCN(CC)CCOC(=O)c1cc2cc3cc(C(=O)OCCN(CC)CC)c(=O)oc3c(C)c2oc1=O	> 200	> 200	
CCOC(=O)C(C(=O)OCC)c1ccc([N+](=O)[O-])o1	> 132	1.86	
Cc1ccc2c(c1)SSc1ccc(C)cc1SS2	> 200	110	
Cc1cc(S(=O)(=O)Nc2nnc3c4ccccc4ccn23)c(S)cc1Cl	155	> 200	
Cc1c2ccccc2c(CSCC(N)C(=O)O)c2ccccc12 (centres undefined)	> 200	> 200	
Fc1cccc(F)c1C1SCc2nc3ncccc3n21 (centres undefined)	39.8	61.7	
COc1ccc(N(C)Sc2ccccc2)cc1	> 200	38	
COc1cc(C(=O)C2CC3(CCC2(O)c2cc(OC)c(OC)c(OC)c2)CC(=O)Nc2ccccc2C3=O)cc(OC)c1OC (centres undefined)	> 200	> 200	
CC(=O)OC1CC2OC(Cc3ccccc32)O1 (centres undefined)	> 200	> 200	
NC12CC3CC(CC(C3)C1)C2	> 200	> 200	inactive
N#Cc1ccc(Oc2nc3ccccc3nc2-c2ccccc2)cc1	> 200	> 200	
CC(=O)c1cc(-c2ccccn2)c(=O)n2ccccc12	> 200	112	
O=C(Nc1ccc(F)c(Cl)c1)Nc1cc(Cl)ccc1SSc1ccc(Cl)cc1NC(=O)Nc1ccc(F)c(Cl)c1	> 66.1	11.7	
CC1=[N+]([O-])c2ccccc2C(=O)C1=O			inactive
Nc1nc(N)c(N=O)c(Nc2ccc(O)cc2)n1	> 200	170	
COc1cc(-c2[o+]c3cc(O)cc(O)c3cc2O)cc(O)c1O	> 200	15.1	
CCOC(=O)C(=Cc1ccc(C#N)cc1)C(=O)OCC	> 132	8.91	
C=C[C@@H](C)[C@]1(C(=O)OC)CCCC12OCCO2	> 282	> 282	
CCCCC1(c2sccc2C(O)(C(F)F)C(F)(F)F)NC(C)(C)CO1 (centres undefined)	> 200	126	
CCOC(=O)C1=C(C)C2C3C(=O)OC(=O)C3C1(C)C1C(=O)OC(=O)C21 (centres undefined)			inactive
NNC(=O)C(=O)N/N=C1\CCC(=O)CC1C(=O)CCC(=O)Nc1ccc(Cl)cc1 (centres undefined)	> 32.4	> 32.4	
CC(C)(C)/C(CC(=O)CCC(=O)Nc1ccc(Cl)cc1)=N\NC(N)=S			inactive
O=C1c2ccccc2-c2nnc(-c3ccccc3)cc21	> 100	8.32	
COc1cc(/C=C2\C(=O)N(c3cccc(NC(C)=O)c3)C(c3ccccc3)S2(=O)=O)cc(OC)c1OC (centres undefined)	> 200	87.1	

Structure (SMILES)	EC50 [µM]	IC50 [µM]	outcome
CSc1cc(-c2ccc(Cl)cc2)s[s+]1	50.1	115	
CC(=O)OC1C=CC(SC23CC4CC(CC(C4)C2)C3)N(C(C)=O)C1SC12CC3CC(CC(C3)C1)C2 (centres undefined)	> 200	> 200	
CC1=CC(=O)N(n2c(Cc3ccc(Cl)cc3)n[nH]c2=O)C1=O	> 200	> 200	
CC(C)(c1ccsc1)c1sccc1C(=O)O	> 200	> 200	
O=[N+]([O-])c1ccc(/C=C/c2ccc(N=Nc3ccc(/C=C/c4ccc([N+](=O)[O-])cc4S(=O)(=O)O)c(S(=O)(=O)O)c3)cc2S(=O)(=O)O)c(S(=O)(=O)O)c1	12.6	> 200	
N#CCCN(C(=O)Nc1ccc(NC(=O)N(CCC#N)c2ccccc2)cc1)c1ccccc1	> 200	> 200	
CC1(O)C=CC2CCC1C2O (centres undefined)	> 1620	> 1620	
Cc1ccc([N+](=O)[O-])cc1P(=O)(O)c1cc([N+](=O)[O-])ccc1C	> 200	> 200	
O=S1(=O)CC2(N3CCCCC3)CCCCC21 (centres undefined)	> 891	219	
COc1ccc(-c2nc(-c3cc4c(ccc5ccccc54)oc3=O)cs2)cc1	> 100	> 100	
CCOC(=O)C#CCCOC1CCCCO1 (centres undefined)	> 138	112	
Cc1ccc2c(c1)-c1c3c(nn1C)-c1ccccc1SC3O2 (centres undefined)	> 23.4	> 23.4	
Cn1c2ccc(Cl)cc2c2ccc3c(c21)C(=O)C=CC3=O	> 100	12.9	
CN(C(=N)c1ccccc1)c1ccccc1			inactive
COc1cccc(C2c3cc4c(cc3OC(N3CCOCC3)C2C)OCO4)c1OC (centres undefined)	> 200	1.7	
COc1c2occc2c([N+](=O)[O-])c2ccc(=O)oc12	> 30.9	26.3	
C=C1CC(c2ccc(OCCCN3C(=O)c4ccccc4C3=O)cc2)OC1=O (centres undefined)	> 20	1.7	
S=c1nc(COc2ccc(Cl)cc2)[nH][nH]1	> 1020	> 1020	
Cc1cn(C2CC(O)C(COC(=O)CCCCCCCCCCBr)O2)c(=O)[nH]c1=O (centres undefined)	> 102	53.7	
CCNc1nc2ccccc2nc1NCC	> 200	> 200	
CC1(c2ccccc2)CC(c2ccccc2)=NO1 (centres undefined)	> 57.5	> 57.5	
COC1=C(N)C(=O)c2nc(C)ccc2C1=O			inactive
CC(C)CC(C[C@@H](O)[C@H](Cc1ccccc1)NC(=O)O[C@H]1CCOC1)S(=O)(=O)c1ccccc1 (some centres undefined)	38.9	112	
COC(CN(C(C)=O)C1CCC2(SCCS2)c2[nH]c3ccccc3c21)OC (centres undefined)	> 200	123	

Structure (SMILES)	EC50 [µM]	IC50 [µM]	outcome
Cn1cnc([N+](=O)[O-])c1Sc1ccccc1C(=O)O	> 339	> 339	
CN(C)Cc1cc(C(=O)/C=C/c2ccc(F)cc2)cc(CN(C)C)c1O	> 200	19.1	
CN(C(=O)C1=CCCCCC1)c1ccccc1Br	> 813	389	
COc1ccc(/C(C#N)=C/c2ccccc2)cc1	> 200	10.7	
O=c1[nH]c(=O)n(C2OC(CO)C(O)C2O)cc1OCCCc1ccccc1 (centres undefined)	> 200	> 200	
C/C=C/C[P+](Cc1ccccc1)(c1ccccc1)c1ccccc1	> 603	4.17	
BrCc1ccc(C[P+](c2ccccc2)(c2ccccc2)c2ccccc2)cc1	> 200	3.89	
Oc1ccc(O)c([P+](c2ccccc2)(c2ccccc2)c2ccccc2)c1	> 200	30.2	
CN(C)CCNC(=O)c1cccc(NC(=O)c2ccccc2)c1[N+](=O)[O-]	> 200	> 200	
CCCC(OCC)(OCC)OCC	> 1320	> 1320	
CC1Sc2ccccc2-c2[nH]c3ccccc3c21 (centres undefined)	> 200	10.2	
CCOC(=O)NN1C(=O)c2cccc3c([N+](=O)[O-])ccc(c23)C1=O	> 2	0.224	
CC(=O)NC1c2ccccc2C(C)(C)C12CCC1(CC2)OCCO1 (centres undefined)	> 200	> 200	
S=c1cc(S)c(=S)[nH][nH]1	> 63.1	19.5	
CCCC(=O)OC1CN2CC[C@H](O)C2C(O)[C@@H]1O (some centres undefined)	2.29	955	
Nc1nc(-c2ccccc2)nc2oc(-c3cccs3)nc12	> 200	> 200	
C=C1C(=O)OC2(C)CCC1CC1OC1(C)CCC=C(C)CCC2O (centres undefined)	> 389	32.4	
CC1(C)CC2C(/C1=N/O)C1(C)CCCC2(C)C1O (centres undefined)	> 200	> 200	
O=C(CNc1ccc2c(=S)c3ccccc3[nH]c2c1)Nc1ccccc1-c1ccccc1NC(=O)CNc1ccc2c(=S)c3ccccc3[nH]c2c1	> 13.8	4.47	
CC12CCC(C(=O)OC1=O)C(C)(C)O2 (centres undefined)	> 200	> 200	
CC(=O)N(CN1C(=O)CCC1C(=O)O)c1cccc(O)c1 (centres undefined)			inactive
Cc1cccc(N=C2NC(=O)C(CC(=O)Nc3cccc(C)c3C)S2)c1 (centres undefined)	> 70.8	> 70.8	
COC(=O)C1CC2C=CC=CC(=O)C2(C)C1 (centres undefined)	> 251	33.1	
Cc1ccc(/C(C#N)=C/c2ccc3c(c2)OCO3)cc1	> 200	10	

Structure (SMILES)	EC50 [µM]	IC50 [µM]	outcome
O=C1C=CC2O[C@H](c3ccccc3)[C@@H](O)C2O1 (some centres undefined)	> 1070	6.46	
O=C1CSC(c2c[nH]c3ccccc23)N1c1ccccc1[N+](=O)[O-] (centres undefined)	> 389	> 389	
CN(/N=C/c1cccc2cccnc12)c1c([N+](=O)[O-])cc([N+](=O)[O-])cc1[N+](=O)[O-]			inactive
O=c1[nH]nc2c3n[nH]c(=O)n3c3ccccc3n12	> 14.8	> 14.8	
CCN(CC)CCC1CCCCN1CC(=O)N1c2ccccc2NC(=O)CC1C (centres undefined)	> 200	> 200	
CCOC(=O)/C(C#N)=C/c1cccc(OC)c1	> 155	> 155	
Oc1cccc2c(Br)ccnc12	> 20	5.13	
C(=N/N=C(N/N=C/C1CNCCN1)N/N=C/C1CNCCN1)/C1CNCCN1 (centres undefined)	> 631	> 631	
COc1ccc(Nc2nnc(-c3nsc4ccccc34)s2)cc1	> 21.4	> 21.4	
Nc1nc(Cl)cc(NCC2(CO)CCCC2)n1	> 200	66.1	
COCCCN1C(=O)C2c3[nH]c4ccccc4c3C3CCC(C(C)(C)C)CC3C2C1=O (centres undefined)	> 200	31.6	
COc1ccc(-c2coc3c(OC)c(OC)c(OC)c(OC)c3c2=O)cc1	> 200	44.7	
COC/N=C(/N)NC#N	> 692	> 692	
CCOC(=O)NN(C(=O)OCC)C(=C(C1=CCCCC1)N1CCOCC1)N(NC(=O)OCC)C(=O)OCC	> 200	> 200	
CCCC1(CC(=O)O)OCCc2c1[nH]c1ccccc21 (centres undefined)	> 912	457	
CC(=O)/C(=C/c1ccccc1F)C(=O)c1ccccc1	> 26.9	> 26.9	
CCC(CCNC(=O)c1ccccc1)(CCNC(=O)c1ccccc1)[N+](=O)[O-]	> 200	> 200	
CCCCCCCCCCOC1C(C(O)CNCCCN(C)C)OC2OC3(CCCCC3)OC21 (centres undefined)	> 200	1.02	
O=c1[nH]c(=O)n(C2C=CC(CO)O2)cc1COCC(F)(F)F (centres undefined)	3.02	105	
Nc1ncnc2c1ccn2C/C=C\CO	> 200	> 200	
COc1ccc(O)c2c(=O)ccccc12			inactive
